Like-named read-outs stand apart in the source and are kept apart here.
What was measured:
[1] = test system: Fa2N-4 cells and primary human hepatocytes
[2] = test system: CYP1A2; assay: CYP1A2 activity induction in Fa2N-4 cells (phenacetin, LC/MS/MS); format: cell-based, human
[3] = test system: Fa2N-4 cells; assay: α-GST release toxicity test in Fa2N-4 cells (FIG. 22); conditions: 72-hour exposure, up to 100 μM
[4] = test system: Fa2N-4 cells and primary human hepatocytes; assay: Toxicity by LDH release and resazurin reduction, Fa2N-4 cells compared with primary human hepatocytes; conditions: Same or Different toxicity response in the two cell types
[5] = test system: CYP3A4; conditions: human
[6] = test system: CYP2B6; conditions: cited from earlier work
[7] = test system: MDR1 (P-glycoprotein); assay: Invader assay MDR1 mRNA induction in Fa2N-4 cells; format: cell-based, human; conditions: 48 hours
[8] = test system: CYP3A4; conditions: human; remark: listed apart in the source
[9] = test system: CYP1A2; conditions: cited from earlier work
[10] = test system: CYP3A4
[11] = test system: UGT1A; assay: Invader assay UGT1A mRNA induction in Fa2N-4 cells; format: cell-based, human; conditions: 48 hours
[12] = test system: CYP1A2
[13] = test system: albumin; assay: Effect of dexamethasone on albumin secretion by Fa2N-4 cells (ELISA); format: cell-based, human; conditions: Fa2N-4 (passage 32); dexamethasone 1.0 μM; 48 hrs
[14] = activity based on 7-ethoxy-4-trifluoromethylcoumarin O-dealkylation
[15] = activity based on S-mephenytoin N-demethylation

## CC1=CC(=O)c2ccccc2C1=O [Menadione]
[1]
  Cellular Response (Fa2N-4 cells compared with primary human hepatocytes): Different
  Non-toxic Compound / Toxic Compound: Toxic
  sensitivity of Fa2N-4 cells relative to primary hepatocytes: less sensitive

## COc1ccc2[nH]c([S+]([O-])Cc3ncc(C)c(OC)c3C)nc2c1 (stereo not shown) [Omeprazole]
[2]; Fa2N-4, 6-well plates, 100 μM omeprazole
  induction of CYP1A2 activity: marked induction
[2]; Fa2N-4, 6-, 12-, 24- and 96-well format, all cases
  CYP1A2 activity induction over control: at least 9 fold
[2]; Fa2N-4 cells
  Fa2N-4 Average induction, CYP1A2: 20 fold
  Fa2N-4 induction (range), CYP1A2: (9.3-29) fold
[1]
  Cellular Response (Fa2N-4 cells compared with primary human hepatocytes): Same
  Non-toxic Compound / Toxic Compound: Omeprazole

## CO[C@H]1C[C@H](O[C@H]2[C@H](C)[C@@H](O[C@@H]3O[C@H](C)C[C@H](N(C)C)[C@H]3OC(C)=O)[C@@H](C)C[C@@]3(CO3)C(=O)[C@H](C)[C@@H](OC(C)=O)[C@@H](C)[C@@H](C)OC(=O)[C@@H]2C)O[C@@H](C)[C@@H]1OC(C)=O [Troleandomycin]
[1]
  Cellular Response (Fa2N-4 cells compared with primary human hepatocytes): Same
  Non-toxic Compound / Toxic Compound: Troleandomycin

## Cc1ccc2cc3c(ccc4ccccc43)c3c2c1CC3 [3-Methylcholanthrene]
[3]
  release of α-GST into the medium: caused a loss of membrane integrity
[4]
  Cellular Response (Fa2N-4 cells compared with primary human hepatocytes): Same

## Cc1c(C)c2c(c(C)c1O)CCC(C)(COc1ccc(CC3SC(=O)NC3=O)cc1)O2 (stereo not shown) [Troglitazone]
[1]
  Cellular Response (Fa2N-4 cells compared with primary human hepatocytes): Different
  Non-toxic Compound / Toxic Compound: Toxic
  sensitivity of Fa2N-4 cells relative to primary hepatocytes: more sensitive than primary hepatocytes

## CC1(COc2ccc(CC3SC(=O)NC3=O)cc2)CCCCC1 (stereo not shown) [Ciglitazone]
[1]
  Cellular Response (Fa2N-4 cells compared with primary human hepatocytes): Same
  Non-toxic Compound / Toxic Compound: Ciglitazone

## CCC1(c2ccccc2)C(=O)NC(=O)NC1=O [Phenobarbital]
[5]
  production of the 6-β testosterone metabolite: weaker CYP3A4 inducers
[4]
  Cellular Response (Fa2N-4 cells compared with primary human hepatocytes): Same

## CO[C@H]1/C=C/O[C@@]2(C)Oc3c(C)c(O)c4c(O)c(c(/C=N/N5CCN(C)CC5)c(O)c4c3C2=O)NC(=O)/C(C)=C\C=C\[C@H](C)[C@H](O)[C@@H](C)[C@@H](O)[C@@H](C)[C@H](OC(C)=O)[C@@H]1C [Rifampin]
[6]; [14]
  Human hepatocytes Average induction, CYP2B6: 4.1 fold
  Human hepatocytes Median induction, CYP2B6: 2.9 fold
  Human hepatocytes induction (range), CYP2B6: ≤ 14 fold
[6]; [15]
  Human hepatocytes Average induction, CYP2B6: 13 fold
  Human hepatocytes Median induction, CYP2B6: 8.5 fold
  Human hepatocytes induction (range), CYP2B6: ≤ 71 fold
[7]
  MDR1 (P-glycoprotein) mRNA induction: 3 fold
[1]
  Cellular Response (Fa2N-4 cells compared with primary human hepatocytes): Same

## NC(=O)OCC(COC(N)=O)c1ccccc1 [Felbamate]
[1]
  Cellular Response (Fa2N-4 cells compared with primary human hepatocytes): Same
  Non-toxic Compound / Toxic Compound: Felbamate

## c1ccc2c(c1)cc1ccc3cccc4ccc2c1c34 [Benzo[a]pyrene]
[1]
  Cellular Response (Fa2N-4 cells compared with primary human hepatocytes): Different
  Non-toxic Compound / Toxic Compound: Toxic
  sensitivity of Fa2N-4 cells relative to primary hepatocytes: more sensitive than primary hepatocytes

## C=C(C)[C@H]1Cc2c(ccc3c2O[C@@H]2COc4cc(OC)c(OC)cc4[C@@H]2C3=O)O1 [Rotenone]
[4]
  Cellular Response (Fa2N-4 cells compared with primary human hepatocytes): Same

## NC(=O)N1c2ccccc2C=Cc2ccccc21 [Carbamazepine]
[1]
  Cellular Response (Fa2N-4 cells compared with primary human hepatocytes): Same
  Non-toxic Compound / Toxic Compound: Carbamazepine

## CN(Cc1cnc2nc(N)nc(N)c2n1)c1ccc(C(=O)N[C@@H](CCC(=O)O)C(=O)O)cc1 [Methotrexate]
[1]
  Cellular Response (Fa2N-4 cells compared with primary human hepatocytes): Same
  Non-toxic Compound / Toxic Compound: Methotrexate

## Cc1c(OCC(F)(F)F)ccnc1C[S+]([O-])c1nc2ccccc2[nH]1 (stereo not shown) [Lansoprazole]
[1]
  Cellular Response (Fa2N-4 cells compared with primary human hepatocytes): Same
  Non-toxic Compound / Toxic Compound: Lansoprazole

## O=C1Nc2ccc(Cl)cc2[C@@](C#CC2CC2)(C(F)(F)F)O1 [Efavirenz]
[1]
  Cellular Response (Fa2N-4 cells compared with primary human hepatocytes): Same
  Non-toxic Compound / Toxic Compound: Efavirenz

## Clc1ccccc1C(c1ccccc1)(c1ccccc1)n1ccnc1 [clotrimazole]
[8]
  CYP3A4 activity induction (FIG. 20): CYP3A4 induction is masked by its inhibitory effect

## O=c1cc(-c2ccccc2)oc2ccc3ccccc3c12 [BNF, β-naphthoflavone]
[9]
  Human hepatocytes Average induction, CYP1A2: 13 fold
  Human hepatocytes Median induction, CYP1A2: 8.4 fold
  Human hepatocytes induction (range), CYP1A2: (2-56) fold
[9]; hepatocytes
  Primary cells Fold-increase, CYP1A2: 13 fold
[10]
  expression of CYP3A4 protein (immunoblot): does not induce CYP3A4 protein expression
[11]
  UGT1A mRNA induction: 2 fold
[12]
  Fa2N-4 cells Fold-increase, CYP1A2: 1.5 fold

## O=C1NC(=O)C(c2ccccc2)(c2ccccc2)N1 [Phenytoin]
[1]
  Cellular Response (Fa2N-4 cells compared with primary human hepatocytes): Same
  Non-toxic Compound / Toxic Compound: Phenytoin

## CCCN(CCC)S(=O)(=O)c1ccc(C(=O)O)cc1 [Probenicid]
[1]
  Cellular Response (Fa2N-4 cells compared with primary human hepatocytes): Same
  Non-toxic Compound / Toxic Compound: Probenicid

## C[C@@H]1C[C@H]2[C@@H]3CCC4=CC(=O)C=C[C@]4(C)[C@@]3(F)[C@@H](O)C[C@]2(C)[C@@]1(O)C(=O)CO [Dexamethasone]
[13]
  Albumin: 100.0 µg/mL
